# Results: patent US4499104A, “Imidazole compound, the process for its preparation, and therapeutically active compositions containing same” (priority 1976, dated 1985)
# Entries after “also recorded” stand apart in the source; their conditions may differ.
# How the values were obtained:
# [1] = Edema by carrageen (rat paw), antiedematous activity; assay type: in vivo, Rats of the Wistar-Roux-Ocefa stock
# Procedure: A 1% physiological solution of carrageen was used. Rats of the Wistar-Roux-Ocefa stock having a weight of 150±30 g were used. The drugs were suspended in 1% carboxymethylcellulose or dissolved in distilled water and administered orally one hour before the inflammatory agent in a volume of 0.5 ml/100 g. The carrageen was adminstered subcutaneously in the subplanetary region of one of the rear paws. The volume of the paw was measured platysmagraphically initially and then after 1.5 hour, 3 hours and 5 hours after administering the carrageen. One inflammation unit was defined as the displacement of 0.01 ml of Hg.
# The edema was evaluated as the difference in volume of the rear paw before and after the carrageen. The DE 50 was calculated by the probits method and graphically. The comparison drugs used were phenylbutazone and niflumic acid.
# [2] = Stretching by acetic acid (chemical stimulus), analgesic activity; assay type: in vivo, mice, Rockland-Roux-Ocefa stock
# Procedure: Twelve mice of both sexes, Rockland-Roux-Ocefa stock of weight 23-25 g were used per group. The drugs were administered orally 30 minutes before i.p. injection of 0.1 ml/10 g of 0.6% acetic acid.
# [3] = Antipyretic activity, hyperthermia by lysate of Neisseria perflava in rabbit; assay type: in vivo, male albino rabbits; settings: oral
# Procedure: This was first studied in the rabbit, using 6 male albino rabbits of 3-3.5 kg per group, made hyperthermal by i.v. injection of 0.5 ml/kg of a lysate of Neisseria perflava. The rectal temperature was determined by thermocouples every 60 minutes for 3 hours. The difference in temperature was calculated between maximum elevation and base temperature at each time. The drug was administered orally.
# [4] = Action on sleep by barbiturates; assay type: in vivo, Wistar-Ocefa rats
# Procedure: […] Loss of the redressment reflex was taken to indicate commencement of sleep. The chlorophenazone was administered orally with a dose of 1/10 of the DL50. The induction time and the duration of sleep were measured.
# [5] = Anticonvulsive activity against strychnine; assay type: in vivo, Rockland-Ocefa mice; settings: for Protection from convulsivant strychnine, first value: first of two values; for Protection from convulsivant strychnine, second value: second of two values
# Procedure: Rockland-Ocefa mice of both sexes weighing 22±3 g and fasting for 16 hours were used. The convulsive agents were administered i.p. in doses of 2 mg/kg of strychnine sulphate and 110 mg/kg of cardiazole.
# Dog = test: Acute toxicity, dog; assay type: in vivo
# [6] = chlorophenazole 51.5 mg/kg oral + pentobarbital sodium 20 mg/kg
compound,measurement,setting,value
"Cc1[nH]cnc1-c1ccc(Cl)cc1 [Chlorophenazole, 4-(p-chlorophenyl)-5-methylimidazole]",Δ Volume of the inflamed paw,"[1]; 10 mg/kg oral, 1.5 hours",15 UPI
same,Δ Volume of the inflamed paw,"[1]; 10 mg/kg oral, 3 hours",35 UPI
same,Δ Volume of the inflamed paw,"[1]; 10 mg/kg oral, 5 hours",58 UPI
same,Δ Volume of the inflamed paw,"[1]; 20 mg/kg oral, 1.5 hours",15 UPI
same,Δ Volume of the inflamed paw,"[1]; 20 mg/kg oral, 3 hours",29 UPI
same,Δ Volume of the inflamed paw,"[1]; 20 mg/kg oral, 5 hours",44 UPI
same,Δ Volume of the inflamed paw,"[1]; 40 mg/kg oral, 1.5 hours",15 UPI
same,Δ Volume of the inflamed paw,"[1]; 40 mg/kg oral, 3 hours",23 UPI
same,Δ Volume of the inflamed paw,"[1]; 40 mg/kg oral, 5 hours",42 UPI
same,IT (DL50/DE50),"[1]; DL50/DE50, os",73.60
same,ED50,"[1]; Rattus norvegicus, po, os, probits method and graphically, read-out: DE50 (the source's name)",7 mg/kg
same,antiedematous activity relative to comparison drugs,[1]; oral,more active than phenylbutazone; also recorded: only slightly more active than niflumic acid
same,"antiinflamatory analgesic activity, overall comparison",[1]; summary of the tests,"decidedly better than phenylbutazone, niflumic acid, clonixine or mepyrazole"
same,% effect,[2]; 21.3 mg/kg oral,18%
same,Number of stretches/20 min.,[2]; 21.3 mg/kg oral,70 stretches/20 min.
same,% effect,[2]; 33.0 mg/kg oral,42%
same,Number of stretches/20 min.,[2]; 33.0 mg/kg oral,49 stretches/20 min.
same,% effect,[2]; 51.0 mg/kg oral,66%
same,Number of stretches/20 min.,[2]; 51.0 mg/kg oral,29 stretches/20 min.
same,analgesic activity,[2]; oral,"very good analgesic activity, decidedly better than that of the clonixine (Table 5) and mepyrazole"
same,protection from temperature increase,[3],clearly protected the animals from temperature increase
same,action on sleep by barbiturates,[4]; 1/10 of the DL50 oral,improves sleep by barbiturates
same,Induction time,[4]; [6],2.9 min
same,Sleeping time,[4]; [6],65.2 min
same,"Protection from convulsivant strychnine, first value","[5]; 50 mg/kg, 15'",7.0
same,"Protection from convulsivant strychnine, second value","[5]; 50 mg/kg, 15'",7.4
same,"Protection from convulsivant strychnine, first value","[5]; 50 mg/kg, 30'",12.8
same,"Protection from convulsivant strychnine, second value","[5]; 50 mg/kg, 30'",12.6
same,"Protection from convulsivant strychnine, first value","[5]; 50 mg/kg, 90'",8.7
same,"Protection from convulsivant strychnine, second value","[5]; 50 mg/kg, 90'",13.8
same,"Protection from convulsivant strychnine, first value","[5]; 100 mg/kg, 15'",11.7
same,"Protection from convulsivant strychnine, second value","[5]; 100 mg/kg, 15'",19.5
same,"Protection from convulsivant strychnine, first value","[5]; 100 mg/kg, 30'",11.3
same,"Protection from convulsivant strychnine, second value","[5]; 100 mg/kg, 30'",13.8
same,"Protection from convulsivant strychnine, first value","[5]; 100 mg/kg, 90'",9.5
same,"Protection from convulsivant strychnine, second value","[5]; 100 mg/kg, 90'",11.5
same,"Protection from convulsivant strychnine, first value","[5]; 200 mg/kg, 15'",28.6
same,"Protection from convulsivant strychnine, second value","[5]; 200 mg/kg, 15'",18.3
same,"Protection from convulsivant strychnine, first value","[5]; 200 mg/kg, 30'",12.8
same,"Protection from convulsivant strychnine, second value","[5]; 200 mg/kg, 30'",16.0
same,"Protection from convulsivant strychnine, first value","[5]; 200 mg/kg, 90'",18.2
same,"Protection from convulsivant strychnine, second value","[5]; 200 mg/kg, 90'",21.0
same,DL100,Dog,50 mg/kg
